{"source": "the NIST ThermoML archive (doi:10.1021/je300533r)", "assay": "refractive index (Na D-line) (dimensionless); wn = mass fraction of the nth substance listed", "details": "298.15 K, 101 kPa, Liquid, Standard Abbe refractometry", "note": "Values joined by “and” are separate entries in the source; they are usually repeats but may differ in a detail not shown here. Equal values may be shown once. Numbers after ± are expanded uncertainties.", "data": [{"smiles": "CC(C)(C)O", "note": "[2-methylpropan-2-ol] + O", "values": [{"measurement": "refractive index", "setting": "w1 = 0.0971", "value": "1.3426 ± 0.0008"}]}, {"smiles": "CCC(C)O", "note": "(stereo unspecified) [butan-2-ol] + O", "values": [{"measurement": "refractive index", "setting": "w1 = 0.0982", "value": "1.3431 ± 0.0008"}]}, {"smiles": "O=C([O-])[C@H](O)[C@@H](O)C(=O)[O-].[Na+].[Na+]", "note": "[disodium L-tartrate] + O", "values": [{"measurement": "refractive index", "setting": "w1 = 0.0401", "value": "1.3393 ± 0.0008"}, {"measurement": "refractive index", "setting": "w1 = 0.0452", "value": "1.3404 ± 0.0008"}, {"measurement": "refractive index", "setting": "w1 = 0.0472", "value": "1.34 ± 0.0008 and 1.3403 ± 0.0008"}]}, {"smiles": "CCCO", "note": "[propan-1-ol] + O", "values": [{"measurement": "refractive index", "setting": "w1 = 0.0949", "value": "1.3413 ± 0.0008"}]}]}
